Assay results taken from ChEMBL document CHEMBL1125524, “Adenosine A1 antagonists. 2. Structure-activity relationships on diuretic activities and protective effects against acute renal failure” (J Med Chem, 1992).
pKi: −log10 of the molar value.

Tests used:
Rattus norvegicus [1] = assay: Serum creatinine concentration measured after intraperitoneal administration of 10 mg/kg of compound to rats (vehicle0.63+/-0.29); format: functional
Rattus norvegicus [2] = assay: Oral diuretic activity was measured after oral administration of 25 mg/kg to rats(control volume is 0.80+/-0.13); format: functional, Urine
Rattus norvegicus [3] = assay: Percent inhibition of serum creatinine by the compound given as ratio of Cr value in treated to vehicle treated ones after intraperitoneal administration of 10 mg/kg of compound to rats (vehicle0.63+/-0.29); format: functional; conditions: ip
Rattus norvegicus [4] = assay: Ratio of urinary excretion value (urinary volume) in treated rats to that in control rats, at a peroral dose of 25 mg/Kg; format: functional, Urine
Rattus norvegicus [5] = assay: Ratio of sodium ion/potassium ion concentration in treated rats to that in control rats, at a peroral dose of 25 mg/Kg; format: functional
Rattus norvegicus [6] = assay: Ratio of urinary excretion value (Na+ concentration) in treated rats to that in control rats, at a peroral dose of 25 mg/Kg; format: functional, Urine
Rattus norvegicus [7] = assay: Effect on urinary excretion potassium and sodium after oral administration of 25 mg/kg to rats(potassium and sodium excretion in control rat is 0.160+/-0.017); format: functional, Urine
Rattus norvegicus [8] = assay: Urea nitrogen concentration measured after intraperitoneal administration of 10 mg/kg of compound to rats(vehicle 137.9+/-8.5); format: functional
Rattus norvegicus [9] = assay: Percent inhibition of Urea nitrogen by the compound given as ratio of UN value in treated to vehicle treated ones fter intraperitoneal administration of 10 mg/kg of compound to rats(vehicle 137.9+/-8.5); format: functional; conditions: ip
Adenosine receptor A1 = target: T1, Adenosine receptor A1 (Cavia porcellus, UniProt P47745)
T1 sequence (P47745 whole entry): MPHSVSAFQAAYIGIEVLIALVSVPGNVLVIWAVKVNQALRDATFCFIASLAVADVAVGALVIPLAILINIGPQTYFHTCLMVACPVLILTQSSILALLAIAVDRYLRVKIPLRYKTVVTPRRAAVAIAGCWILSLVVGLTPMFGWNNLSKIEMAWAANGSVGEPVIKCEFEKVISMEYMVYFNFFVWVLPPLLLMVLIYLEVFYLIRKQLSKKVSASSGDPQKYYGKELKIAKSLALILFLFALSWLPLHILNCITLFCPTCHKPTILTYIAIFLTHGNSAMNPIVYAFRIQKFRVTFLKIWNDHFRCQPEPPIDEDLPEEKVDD
Description: Binding affinity against adenosine A1 receptor in guinea pig forebrain membranes using N6-[3H]cyclohexyladenosine as radioligand

Adenosine A2 receptor = Adenosine A2 receptor (Rattus norvegicus, UniProt P29276+P30543)
Rattus norvegicus [10] = assay: Serum creatinine concentration measured after intraperitoneal administration of 1 mg/kg of compound to rats(vehicle 2.75+/-0.43); format: functional
Rattus norvegicus [11] = assay: Effect on urinary excretion potassium and sodium after oral administration of 0.0025 mg/kg to rats(potassium and sodium excretion in control rat is 0.146+/-0.006); format: functional, Urine
Rattus norvegicus [12] = assay: Effect on urinary excretion potassium and sodium after oral administration of 0.005 mg/kg to rats(potassium and sodium excretion in control rat is 0.160+/-0.006); format: functional, Urine
Rattus norvegicus [13] = assay: Ratio of urinary excretion value (Na+ concentration) in treated rats to that in control rats, at a peroral dose of 0.0025 mg/Kg; format: functional, Urine
Rattus norvegicus [14] = assay: Ratio of urinary excretion value (Na+ concentration) in treated rats to that in control rats, at a peroral dose of 0.005 mg/Kg; format: functional, Urine
Rattus norvegicus [15] = assay: Effect on urinary excretion potassium and sodium after oral administration of 0.4 mg/kg to rats(potassium and sodium excretion in control rat is 0.261+/-0.008); format: functional, Urine
Rattus norvegicus [16] = assay: Effect on urinary excretion potassium and sodium after oral administration of 1.6 mg/kg to rats(potassium and sodium excretion in control rat is 0.173+/-0.016); format: functional, Urine
Rattus norvegicus [17] = assay: Percent inhibition of serum creatinine by the compound given as ratio of Cr value in treated to vehicle treated ones after intraperitoneal administration of 1 mg/kg of compound to rats(vehicle 2.75+/-0.43); format: functional; conditions: ip
Rattus norvegicus [18] = assay: Ratio of urinary excretion value (urinary volume) in treated rats to that in control rats, at a peroral dose of 0.1 mg/Kg; format: functional, Urine
Rattus norvegicus [19] = assay: Ratio of urinary excretion value (urinary volume) in treated rats to that in control rats, at a peroral dose of 0.4 mg/Kg; format: functional, Urine
Rattus norvegicus [20] = assay: Ratio of urinary excretion value (urinary volume) in treated rats to that in control rats, at a peroral dose of 1.6 mg/Kg; format: functional, Urine
Rattus norvegicus [21] = assay: Urea nitrogen concentration measured after intraperitoneal administration of 1 mg/kg of compound to rats(vehicle 123.2+/-14.2); format: functional
Rattus norvegicus [22] = assay: Effect on urinary excretion potassium and sodium after oral administration of 0.025 mg/kg to rats(potassium and sodium excretion in control rat is 0.183+/-0.012); format: functional, Urine
Rattus norvegicus [23] = assay: Effect on urinary excretion potassium and sodium after oral administration of 0.1 mg/kg to rats(potassium and sodium excretion in control rat is 0.143+/-0.013); format: functional, Urine
Rattus norvegicus [24] = assay: Ratio of sodium ion/potassium ion concentration in treated rats to that in control rats, at a peroral dose of 0.0025 mg/Kg; format: functional
Rattus norvegicus [25] = assay: Ratio of sodium ion/potassium ion concentration in treated rats to that in control rats, at a peroral dose of 0.005 mg/Kg; format: functional
Rattus norvegicus [26] = assay: Ratio of sodium ion/potassium ion concentration in treated rats to that in control rats, at a peroral dose of 0.025 mg/Kg; format: functional
Rattus norvegicus [27] = assay: Ratio of sodium ion/potassium ion concentration in treated rats to that in control rats, at a peroral dose of 0.1 mg/Kg; format: functional
Rattus norvegicus [28] = assay: Ratio of sodium ion/potassium ion concentration in treated rats to that in control rats, at a peroral dose of 0.4 mg/Kg; format: functional
Rattus norvegicus [29] = assay: Ratio of sodium ion/potassium ion concentration in treated rats to that in control rats, at a peroral dose of 1.6 mg/Kg; format: functional
Rattus norvegicus [30] = assay: Ratio of urinary excretion value (Na+ concentration) in treated rats to that in control rats, at a peroral dose of 0.1 mg/Kg; format: functional, Urine
Rattus norvegicus [31] = assay: Ratio of urinary excretion value (Na+ concentration) in treated rats to that in control rats, at a peroral dose of 0.4 mg/Kg; format: functional, Urine
Rattus norvegicus [32] = assay: Ratio of urinary excretion value (Na+ concentration) in treated rats to that in control rats, at a peroral dose of 1.6 mg/Kg; format: functional, Urine
Rattus norvegicus [33] = assay: Ratio of urinary excretion value (Na+ concentration) in treated rats to that in control rats, at a peroral dose of 6.25 mg/Kg; format: functional, Urine
Rattus norvegicus [34] = assay: Ratio of urinary excretion value (urinary volume) in treated rats to that in control rats, at a peroral dose of 0.0025 mg/Kg; format: functional, Urine
Rattus norvegicus [35] = assay: Ratio of urinary excretion value (urinary volume) in treated rats to that in control rats, at a peroral dose of 0.005 mg/Kg; format: functional, Urine
Rattus norvegicus [36] = assay: Ratio of urinary excretion value (urinary volume) in treated rats to that in control rats, at a peroral dose of 0.025 mg/Kg; format: functional, Urine
Rattus norvegicus [37] = assay: Effect on urinary excretion potassium and sodium after oral administration of 25 mg/kg to rats(potassium and sodium excretion in control rat is 0.138+/-0.008); format: functional, Urine
Rattus norvegicus [38] = assay: Oral diuretic activity was measured after oral administration of 0.0025 mg/kg to rats(control volume is 0.95+/-0.12); format: functional, Urine
Rattus norvegicus [39] = assay: Oral diuretic activity was measured after oral administration of 0.005 mg/kg to rats(control volume is 0.76+/-0.01); format: functional, Urine
Rattus norvegicus [40] = assay: Oral diuretic activity was measured after oral administration of 0.025 mg/kg to rats(control volume is 0.82+/-0.05); format: functional, Urine
Rattus norvegicus [41] = assay: Oral diuretic activity was measured after oral administration of 0.1 mg/kg to rats(control volume is 0.92+/-0.05); format: functional, Urine
Rattus norvegicus [42] = organism: Rattus norvegicus; format: functional, Urine; conditions: po, 1.6 mg/kg
Rattus norvegicus [43] = assay: Percent inhibition of Urea nitrogen by the compound given as ratio of UN value in treated to vehicle treated ones after intraperitoneal administration of 1 mg/kg of compound to rats(vehicle 123.2+/-14.2); format: functional; conditions: ip
Rattus norvegicus [44] = assay: Ratio of urinary excretion value (Na+ concentration) in treated rats to that in control rats, at a peroral dose of 0.025 mg/Kg; format: functional, Urine
Rattus norvegicus [45] = assay: Ratio of urinary excretion value (urinary volume) in treated rats to that in control rats, at a peroral dose of 6.25 mg/Kg; format: functional, Urine
Rattus norvegicus [46] = assay: Oral diuretic activity was measured after oral administration of 0.4 mg/kg to rats(control volume is 1.4+/-0.05); format: functional, Urine
Rattus norvegicus [47] = assay: Oral diuretic activity was measured after oral administration of 25 mg/kg to rats(control volume is 0.66+/-0.04); format: functional, Urine

SMILES: CCCn1c(=O)c2nc(CC34CC5CC(CC(C5)C3)C4)[nH]c2n(CCC)c1=O
- Cr (Rattus norvegicus [1]): 3.21 mg/dL
- Urine volume (Rattus norvegicus [2]): 0.51 ml 6hr-1 100g-1
- inhibition in vivo at 10 mg/kg (Rattus norvegicus [3]): 12%
- T/C (Rattus norvegicus [4]): 0.64
- Na+/K+ (Rattus norvegicus [5]): 0.84
- T/C (Rattus norvegicus [6]): 0.67
- Na (Rattus norvegicus [7]): 0.108 m equiv 6hr-1 100g-1
- UN (Rattus norvegicus [8]): 117.8 mg/dL
- inhibition in vivo at 10 mg/kg (Rattus norvegicus [9]): 15%
- pKi (Adenosine receptor A1): 6.06
- Ki (Adenosine A2 receptor): > 100000 nM

SMILES: CCCn1c(=O)c2nc(C34CC5CC(CC3C5)C4)[nH]c2n(CCC)c1=O [ROLOFYLLINE]
- Cr (Rattus norvegicus [10]): 2 mg/dL
- Na (Rattus norvegicus [11]): 0.258 m equiv 6hr-1 100g-1
- Na (Rattus norvegicus [12]): 0.256 m equiv 6hr-1 100g-1
- T/C (Rattus norvegicus [13]): 1.76
- T/C (Rattus norvegicus [14]): 1.6
- Na (Rattus norvegicus [15]): 0.447 m equiv 6hr-1 100g-1
- Na (Rattus norvegicus [16]): 0.399 m equiv 6hr-1 100g-1
- inhibition in vivo at 1 mg/kg (Rattus norvegicus [17]): 47%
- T/C (Rattus norvegicus [18]): 2.65
- T/C (Rattus norvegicus [19]): 1.86
- T/C (Rattus norvegicus [20]): 2.61
- T/C (Rattus norvegicus [4]): 4.15
- UN (Rattus norvegicus [21]): 66.4 mg/dL
- Na (Rattus norvegicus [22]): 0.331 m equiv 6hr-1 100g-1
- Na (Rattus norvegicus [23]): 0.334 m equiv 6hr-1 100g-1
- Na+/K+ (Rattus norvegicus [24]): 1.59
- Na+/K+ (Rattus norvegicus [25]): 1.11
- Na+/K+ (Rattus norvegicus [26]): 1.45
- Na+/K+ (Rattus norvegicus [27]): 1.9
- Na+/K+ (Rattus norvegicus [28]): 1.42
- Na+/K+ (Rattus norvegicus [29]): 1.93
- Na+/K+ (Rattus norvegicus [5]): 2.05
- T/C (Rattus norvegicus [30]): 2.34
- T/C (Rattus norvegicus [31]): 1.7
- T/C (Rattus norvegicus [32]): 2.3
- T/C (Rattus norvegicus [6]): 3.44
- T/C (Rattus norvegicus [33]): 2.64
- T/C (Rattus norvegicus [34]): 1.69
- T/C (Rattus norvegicus [35]): 1.83
- T/C (Rattus norvegicus [36]): 2.13
- Na (Rattus norvegicus [37]): 0.457 m equiv 6hr-1 100g-1
- Urine volume (Rattus norvegicus [38]): 1.61 ml 6hr-1 100g-1
- Urine volume (Rattus norvegicus [39]): 1.39 ml 6hr-1 100g-1
- Urine volume (Rattus norvegicus [40]): 1.75 ml 6hr-1 100g-1
- Urine volume (Rattus norvegicus [41]): 2.44 ml 6hr-1 100g-1
- Urine volume (Rattus norvegicus [42]): 2.77 ml 6hr-1 100g-1
- inhibition in vivo at 1 mg/kg (Rattus norvegicus [43]): 46%
- T/C (Rattus norvegicus [44]): 1.81
- T/C (Rattus norvegicus [45]): 2.9
- Urine volume (Rattus norvegicus [46]): 2.64 ml 6hr-1 100g-1
- Urine volume (Rattus norvegicus [47]): 2.74 ml 6hr-1 100g-1
- pKi (Adenosine A2 receptor): 6.42
